Results: ChEMBL document CHEMBL1141445, “Rhizochalins C and D from the sponge Rhizochalina incrustata. A rare threo-sphingolipid and a facile method for determination of the carbonyl position in alpha,omega-bifunctionalized ketosphingolipids” (2007)

test system: Nakaseomyces glabratus; assay: Antifungal activity against fluconazole-resistant Candida glabrata; type: functional; conditions: read-out: ED50 (the source's name)

SMILES	EC50 [µM]
CC1[C@@H](CO)O[C@@H](O[C@H](CCCCCCCC(=O)CCCCCCCCCCCCCC[C@@H](O)[C@@H](C)N)[C@@H](N)CO)[C@H](O)[C@H]1O (some centres undefined) [OCEANAPISIDE]	40
C[C@@H](N)[C@H](O)CCCCCCCC(=O)CCCCCCCCCCCCCC[C@@H](O[C@@H]1O[C@H](CO)[C@H](O)[C@H](O)[C@H]1O)[C@H](N)CO [RHIZOCHALIN C]	> 150
C[C@@H](N)[C@H](O)CCCCCCCCC(=O)CCCCCCCCCCCCCC[C@@H](O[C@@H]1O[C@H](CO)[C@H](O)[C@H](O)[C@H]1O)[C@@H](C)N [RHIZOCHALIN D]	> 150
C[C@@H](N)[C@H](O)CCCCCCCC(=O)CCCCCCCCCCCCCC[C@@H](O[C@@H]1O[C@H](CO)[C@H](O)[C@H](O)[C@H]1O)[C@@H](C)N [RHIZOCHALIN]	40
